Test results from article PMC13403234, “Engineering Cathepsin S Selective Chemical Probes and Antibody−Drug Conjugates through Substrate Profiling with Unnatural Amino Acids” (Journal of Medicinal Chemistry, 2026).
*1 amine or outer side, *2 acyl side, *3 side chain or, on linkers, in order; H or OH if unused. Where a SMILES comes first, the peptide text is derived from it. [ ]: non-standard residue; d: D form. The star is where a group is joined. Dolaproine = CO[C@@H]([C@@H]1CCCN1)[C@@H](C)C(=O)O; Phe(F5) = N[C@@H](Cc1c(F)c(F)c(F)c(F)c1F)C(=O)O; Dil = CC[C@H](C)[C@H](NC)[C@@H](CC(=O)O)OC; PABC = O=C(OCc1ccc(N[*:1])cc1)[*:2]; X1 = C[C@@H](N*)[C@@H](O)c1ccccc1; Cit = NC(=O)NCCC[C@H](N)C(=O)O; NMeV = CN[C@H](C(=O)O)C(C)C; ClZ = O=C(OCc1ccccc1Cl)*

Columns and labels:
Cathepsin V [1] = molecular target: T1, Cathepsin V (Homo sapiens, UniProt O60911); experiment: Second-order rate constants of inhibition (kobs/[I]), cathepsin V; type: biochemical; conditions: Figure 4D; Cy5- and BODIPY-labeled probes
T1 construct: made in house
T1 sequence (O60911 114-334): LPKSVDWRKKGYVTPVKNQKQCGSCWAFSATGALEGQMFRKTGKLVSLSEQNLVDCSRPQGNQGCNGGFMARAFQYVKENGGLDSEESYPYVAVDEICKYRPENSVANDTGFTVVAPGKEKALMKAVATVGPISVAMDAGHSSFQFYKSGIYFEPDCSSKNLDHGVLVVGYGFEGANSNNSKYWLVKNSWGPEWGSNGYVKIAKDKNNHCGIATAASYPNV
Experimental: (§1) All kinetic studies were performed using an fMax fluorescence plate reader (Molecular Devices) in kinetic mode with 96- or 384-well plates. ACC fluorescence was monitored at excitation and emission wavelengths of 355 and 460 nm, respectively. Recombinant human cysteine cathepsins L, V, B, K, and S were expressed and purified as previously described. Prior to use, all cysteine cathepsins were titrated with E64 to normalize enzymatic activity. Assays for cathepsins were conducted in 100 mM sodium acetate buffer containing 10 mM NaCl and 10 mM DTT (pH 5.5). Breast cancer cell lysates (BT-474, MCF-7, MDA-MB-231) were prepared by culturing cells to confluence in the appropriate media, replacing media with PBS, and harvesting the cells using a cell scraper (without trypsin). The cells were pelleted by centrifugation (400 × g, 5 min), resuspended in PBS, and centrifuged again under the same conditions. After removal of the supernatant, the pellet was resuspended in cathepsin assay buffer (excluding DTT) and sonicated. Lysates were then clarified by centrifugation (12,000 × g, 5 min), and the supernatants were collected and stored at −80 °C until use. All enzymatic assays, including HyCoSuL library screening and kinetic analyses of synthetic substrates, inhibitors, probes and prodrugs, were conducted at 37 °C and repeated at least three times. Mean values are reported. Kinetic data were analyzed using GraphPad Prism software (version 10.4.1).
(§2) The second-order rate constants of inhibition (k obs/[I]) were determined for human recombinant cathepsins S, B, L, and V using their respective assay buffers. All measurements were performed under pseudo-first-order kinetic conditions, as previously described. Inhibitors or ABPs were serially diluted in assay buffer and transferred to a 96-well plate. Each well was supplemented with the fluorogenic substrate Cbz-Phe-Arg-AMC at a final concentration of 25 μM and preincubated for 15 min. In parallel, enzymes were preactivated in assay buffer for 15 min at room temperature. Following preincubation, the activated enzymes were added to the wells, and fluorescence was monitored immediately for 30 min. The k obs/[I] values (M^-1S^-1) were calculated from the progress curves and averaged from at least three independent experiments. Final inhibitor (or ABP) concentrations were maintained at a minimum of 5-fold excess relative to enzyme concentrations to ensure pseudo-first-order conditions. Results were analyzed in GraphPad Prism and are reported as mean ± standard deviation.

Cathepsin L [2] = molecular target: T2, Cathepsin L (Homo sapiens, UniProt P07711); experiment: Second-order rate constants of inhibition (kobs/[I]), cathepsin L; type: biochemical; conditions: for kobs/[I] Cath L: Figure 4D, Cy5- and BODIPY-labeled probes
T2 construct: made in house
T2 sequence (P07711 114-333): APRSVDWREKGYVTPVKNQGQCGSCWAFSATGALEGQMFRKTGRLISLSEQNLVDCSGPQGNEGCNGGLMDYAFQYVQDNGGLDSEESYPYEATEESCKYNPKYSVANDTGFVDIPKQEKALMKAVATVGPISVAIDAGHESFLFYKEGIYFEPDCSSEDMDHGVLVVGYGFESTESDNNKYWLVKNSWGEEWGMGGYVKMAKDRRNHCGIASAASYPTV
Experimental: as §1, §2

Cathepsin B [3] = molecular target: T3, Cathepsin B (Homo sapiens, UniProt P07858); experiment: Second-order rate constants of inhibition (kobs/[I]), cathepsin B; type: biochemical; parameters: made in house; conditions: for kobs/[I] Cath B: Figure 4D, Cy5- and BODIPY-labeled probes
Experimental: as §1, §2

Cathepsin S [4] = molecular target: T4, Cathepsin S (Homo sapiens, UniProt P25774); experiment: Second-order rate constants of inhibition (kobs/[I]), cathepsin S; type: biochemical; conditions: for kobs/[I] Cath S / Selectivity S to B / Selectivity S to V: Figure 4D; for kobs/[I] Cath S: Cy5- and BODIPY-labeled probes; for Selectivity S to B / Selectivity S to V: calculated from kobs/[I]; for Selectivity S to B: cathepsin S over cathepsin B; for Selectivity S to V: cathepsin S over cathepsin V
T4 construct: made in house
T4 sequence (P25774 115-331): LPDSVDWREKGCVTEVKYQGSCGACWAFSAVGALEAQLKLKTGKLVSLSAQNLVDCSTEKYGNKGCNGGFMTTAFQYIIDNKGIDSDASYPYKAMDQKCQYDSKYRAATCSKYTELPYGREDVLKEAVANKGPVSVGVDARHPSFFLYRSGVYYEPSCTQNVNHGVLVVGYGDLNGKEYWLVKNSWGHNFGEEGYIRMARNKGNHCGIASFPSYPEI
Experimental: as §1, §2

Cathepsin L [5] = molecular target: T2, Cathepsin L; experiment: Fluorogenic ACC substrate hydrolysis kinetics, cathepsin L; type: biochemical; parameters: kcat Cathepsin L: unit not given here; conditions: third-generation substrates, steady-state; for Km: Table S5; for kcat Cathepsin L: Table S6
Experimental: as §1
(§3) Peptide substrates for cathepsin S were designed based on P4-P1 specificity profiling and synthesized on Rink amide resin using standard Fmoc solid-phase peptide synthesis protocols. The resin was swollen in dichloromethane (DCM) and deprotected with 20% piperidine in DMF. Fmoc-ACC-OH was coupled twice using HOBt/DIC in DMF and allowed to react overnight. Subsequent Fmoc-protected amino acids were coupled sequentially using HATU and 2,4,6-collidine, with Fmoc deprotection after each step using 20% piperidine in DMF. Following chain assembly, the N-terminus was acetylated using AcOH/HBTU/DIPEA in DMF for 45 min. Peptides were cleaved from the resin using TFA/TIPS/H2O (95:2.5:2.5, v/v/v) for 2 h, precipitated in cold diethyl ether, lyophilized, and purified by preparative HPLC. […] Final compounds were dissolved in DMSO at 20 mM and stored at −80 °C. To evaluate substrate selectivity, each fluorogenic peptide (10 μM) was incubated with recombinant cysteine cathepsins (5 nM) in assay buffer at 37 °C. Fluorescence emission was recorded at 460 nm, and initial cleavage rates were reported as relative fluorescence units per second (RFU/s). For selected substrates, detailed kinetic parameters (k cat, KM, and k cat/KM) were determined as previously described.

Cathepsin B [6] = molecular target: T3, Cathepsin B; experiment: Fluorogenic ACC substrate hydrolysis kinetics, cathepsin B; type: biochemical; parameters: made in house; kcat Cathepsin B: unit not given here; conditions: third-generation substrates, steady-state; for Km: Table S5; for kcat Cathepsin B: Table S6
Experimental: as §1, §3

Cathepsin S [7] = molecular target: T4, Cathepsin S; experiment: Fluorogenic ACC substrate hydrolysis kinetics, cathepsin S; type: biochemical; parameters: kcat Cathepsin S: unit not given here; conditions: third-generation substrates, steady-state; for Km: Table S5; for kcat Cathepsin S: Table S6
Experimental: as §1, §3

Cathepsin V [8] = molecular target: T1, Cathepsin V; experiment: Fluorogenic ACC substrate hydrolysis kinetics, cathepsin V; type: biochemical; parameters: kcat Cathepsin V: unit not given here; conditions: third-generation substrates, steady-state; for Km: Table S5; for kcat Cathepsin V: Table S6
Experimental: as §1, §3

[9] = molecular target: T5, active cathepsin S in MDA-MB-231 live cells (Homo sapiens, UniProt P25774); experiment: Labeling of active cathepsin S in MDA-MB-231 live cells with Cy5 probes; type: cell-based; conditions: inhibitor 25 μM for 2 h, then OG-233 or OG-234 for 24 h
T5 construct: endogenous in cells; host or cells: MDA-MB-231
T5 sequence (P25774 115-331): as above
Experimental: 50,000 of MDA-MB-231 cells were seeded into 12-well plate and allowed to attach overnight. The next day, OG-233 and OG-234 probes (1 μM final concentration) were added to the cells and incubated for various times (from 0,5 h up to 24 h). Control cells were preincubated with cathepsin S inhibitors (JN1, JN4, JN7) at 25 μM for 2 h, and then incubated with OG-233 or OG-234 probes for 24 h. Next, cells were harvested and prepared for SDS-PAGE analysis as described in the above section. Electrophoresis was run for 25 min (4−12% Bis-Tris Plus 10-well gel, 200 V). Next, proteins were transferred onto the membrane (0.2 μm nitrocellulose membrane, 10 V, 60 min) and Ponceau S was used to verify equal loading and transfer. Membranes were then blocked with 5% BSA in TBS-T buffer for 1 h at RT. Membranes were next incubated anticathepsin S antibody (1:1,000, overnight, 4 °C), and the next day with a secondary antibody (IRDye 800CW, donkey anti-Goat) for 30 min at RT, and scanned at 680 and 800 nm using the Sapphire biomolecular imager (Azure Biosystems) to detect the Cy5 probes and cathepsin S. All images were analyzed with Image Studio software.

Cathepsin S [10] = molecular target: T4, Cathepsin S; experiment: Prodrug cleavage / MMAE release by LC-MS, cathepsin S; type: biochemical; conditions: prodrug 50 μM, pH 5.5, 37 °C, 0-120 min
Experimental: Cleavage assays were conducted at 37 °C in 1 mL reaction volumes using acetate buffer composed of 100 mM sodium acetate (pH 5.5), 100 mM NaCl, 1 mM EDTA, and 5 mM DTT. Buffers were prepared at room temperature and equilibrated before use. Prodrugs were initially dissolved in DMSO at a stock concentration of 10 mM, then diluted into the reaction buffer to a final concentration of 50 μM, maintaining a DMSO concentration below 0.5% (v/v). Reactions were initiated by the addition of recombinant cathepsin and carried out in glass LC-MS vials incubated at 37 °C. At specified time points (0, 5, 30, 60, and 120 min), aliquots were taken and directly injected into the LC-MS system without further processing. Quantification of MMAE release was based on absorbance at 220 nm. The area under the MMAE peak was integrated, and the amount of released MMAE was plotted as a function of time. Each time point was measured in triplicate, and results are presented as mean ± standard deviation (SD). A standard curve was prepared using free MMAE at concentrations of 1, 5, 10, 20, and 50 μM to enable accurate quantification of MMAE released from the prodrugs.

BODIPY-PEG(4)-Phe(F5)-Cit-Lys(2ClZ)-Glu(Me)-AOMK [OG-235]
kobs/[I] Cath V (Cathepsin V [1]): 1,640 M^-1s^-1
kobs/[I] Cath L (Cathepsin L [2]): < 500 M⁻¹ s⁻¹
kobs/[I] Cath B (Cathepsin B [3]): 7,700 M^-1s^-1
kobs/[I] Cath S (Cathepsin S [4]): 1,140,000 M^-1s^-1
Selectivity S to B (Cathepsin S [4]): 148
Selectivity S to V (Cathepsin S [4]): 695
higher potency than the unlabeled parent inhibitor (Cathepsin S [4]; cathepsin S kobs/[I], probe vs parent inhibitor): over 2 fold
selectivity for cathepsin S over cathepsin L (Cathepsin S [4]; kobs/[I] based): > 2000 fold
selectivity for cathepsin S over cathepsin V (Cathepsin S [4]; kobs/[I] based): > 500 fold

Ac-Phe(F5)-Thz-2Aoc-Gln-ACC [OG-200]
Km (Cathepsin L [5]): 15.9 µM
kcat Cathepsin L (Cathepsin L [5]): 0,02
Km (Cathepsin B [6]): 20.3 µM
kcat Cathepsin B (Cathepsin B [6]): 0,30
Km (Cathepsin S [7]): 1.63 µM
kcat Cathepsin S (Cathepsin S [7]): 0,15
Km (Cathepsin V [8]): 4.31 µM
kcat Cathepsin V (Cathepsin V [8]): 0,20

BODIPY-PEG(4)-Met(O2)-Cit-NptGly-Glu(Me)-AOMK [OG-236]
kobs/[I] Cath V (Cathepsin V [1]): 2,170 M^-1s^-1
kobs/[I] Cath L (Cathepsin L [2]): < 500 M⁻¹ s⁻¹
kobs/[I] Cath B (Cathepsin B [3]): 3,800 M^-1s^-1
kobs/[I] Cath S (Cathepsin S [4]): 78,300 M^-1s^-1
Selectivity S to B (Cathepsin S [4]): 21
Selectivity S to V (Cathepsin S [4]): 36

Ac-Met(O2)-Cit-NptGly-Glu(Me)-AOMK [JN-1]
effect of inhibitor pretreatment on probe binding [9]: did not influence probe binding

CC(C)C[C@H](NC(=O)[C@H]1O[C@@H]1C(=O)O)C(=O)NCCCCN=C(N)N [E-64, reference compound]
kinact/KI (Cathepsin L [2]; pH 5.5, read-out: kobs/[I] Cathepsin L): 65100 M⁻¹ s⁻¹
kinact/KI (Cathepsin B [3]; pH 5.5, read-out: kobs/[I] Cathepsin B): 81200 M⁻¹ s⁻¹
kinact/KI (Cathepsin S [4]; pH 5.5, Table S8, AOMK inhibitors, pseudo-first-order conditions): 132000 M⁻¹ s⁻¹

Ac-Phe(F5)-Cit-Lys(2ClZ)-Glu(Me)-AOMK [JN-7]
effect of inhibitor pretreatment on probe binding [9]: did not influence probe binding

CC[C@H](C)[C@@H]([C@@H](CC(=O)N1CCC[C@H]1[C@H](OC)[C@@H](C)C(=O)N[C@H](C)[C@@H](O)c1ccccc1)OC)N(C)C(=O)[C@@H](NC(=O)[C@H](C(C)C)N(C)C(=O)OCc1ccc(NC(=O)[C@@H](CCC(=O)OC)NC(=O)[C@H](CCCCNC(=O)OCc2ccccc2Cl)NC(=O)[C@H](CCCNC(N)=O)NC(=O)[C@H](Cc2c(F)c(F)c(F)c(F)c2F)NC(C)=O)cc1)C(C)C [313D, Ac-Phe(F5)-Cit-Lys(2ClZ)-DGlu(Me)-PABC-MMAE] (Ac-[Phe(F5)][Cit]K(ClZ)[dE](OMe)[PABC][NMeV]V[Dil][Dolaproine]-X1; N-terminus and C-terminus assumed)
cleavage / free MMAE release by cathepsin S (Cathepsin S [10]): remained stable

CC[C@H](C)[C@@H]([C@@H](CC(=O)N1CCC[C@H]1[C@H](OC)[C@@H](C)C(=O)N[C@H](C)[C@@H](O)c1ccccc1)OC)N(C)C(=O)[C@@H](NC(=O)[C@H](C(C)C)N(C)C(=O)OCc1ccc(NC(=O)[C@H](CCC(=O)OC)NC(=O)[C@H](CCCCNC(=O)OCc2ccccc2Cl)NC(=O)[C@H](CCCNC(N)=O)NC(=O)[C@H](Cc2c(F)c(F)c(F)c(F)c2F)NC(C)=O)cc1)C(C)C [compound 313, Ac-Phe(F5)-Cit-Lys(2ClZ)-Glu(Me)-PABC-MMAE] (Ac-[Phe(F5)][Cit]K(ClZ)E(OMe)[PABC][NMeV]V[Dil][Dolaproine]-X1; N-terminus and C-terminus assumed)
cleavage / free MMAE release by cathepsin S (Cathepsin S [10]): selectively and efficiently hydrolyzed only by cathepsin S

Ac-Phe(F5)-Thz-2Aoc-Glu(Me)-ACC [OG-201]
Km (Cathepsin L [5]): 12.1 µM
kcat Cathepsin L (Cathepsin L [5]): 0,03
Km (Cathepsin B [6]): 15.8 µM
kcat Cathepsin B (Cathepsin B [6]): 0,46
Km (Cathepsin S [7]): 3.04 µM
kcat Cathepsin S (Cathepsin S [7]): 0,65
Km (Cathepsin V [8]): 11.2 µM
kcat Cathepsin V (Cathepsin V [8]): 0,29
